# In patent US20210379151A1 (ACADEMIA SINICA, priority 2018, published 2021):
# Where a name gives a salt, the structure may show the parent alone. Read-outs that look alike come from different tables or passages of the source.
# How the values were obtained:
# BBB [1] = experiment: Doxorubicin biodistribution (HPLC)
# Procedure: Organs were removed, dried, weighed, cut into multiple smaller pieces (approximately 100 mg tissue or 100 μl plasma) then thoroughly homogenised with 1 ml lysis buffer (0.25 M sucrose, 5 mM Tris-HCl, 1 mM MgSO4, 1 mM CaCl2, pH 6.7). 200 μl homogenate was then mixed with 1 ml acidified alcohol (70% ethanol, 0.3 N HCl), left overnight at −20° C., then centrifuged at 10,000×g for 30 minutes at 4° C. Supernatant was taken for HPLC analysis. Separation was via a Waters e2695 separation module, mobile phase 35% 10 mM KH2PO4, 65% methanol, flow rate 1 ml/min in an X-Bridge 5 μm column at 40° C. Detection used a Waters e2475 module (ex 480, em 600 nm).
# Aryal et al., J. Control. Release, 204, 60-69 (2015); Kovacs et al., 2014; and Wohlfart et al., J Control Release, 154 (1), 103-107 (2011). […] The drug was allowed to circulate for two hours before the animal was perfused with saline. Doxorubicin was then extracted from the vital organs and quantified by HPLC (FIG. 8c). […] FIG. 2b.
# BBB [2] = experiment: HPLC quantification of TMZ in brain; assay type: in vivo; details: mice
# Procedure: Approximately 100 mg tissue was homogenised in acidified ammonium acetate (200 μl, 10 mM pH 3.5), zinc sulphate (200 μl, 100 mM) and methanol (400 μl), followed by centrifugation at 10,000×g for 30 minutes at 4° C. Supernatant was taken for HPLC analysis. Separation was carried out with a Water e2695 separation module using 80:20 ratio of acetic acid (0.1% v/v) to methanol at a flow rate of 0.8 ml/min in an Atlantis T3 3 μm HPLC column at 35° C. Detection was performed using a Waters 2489 UV/vis detector at 316 nm. Theophylline was used as an internal standard, measured at 275 nm, and results calculated as the peak ratio of TMZ to theophylline.
# [3] = system: key genes related to BBB integrity
# Procedure: Samples of mouse cerebral cortex weighing approximately 50 mg were homogenised in Trizol, and total RNA extracted via the manufacturer's protocol, then quantified by Nanodrop. Samples were reverse transcribed to cDNA using a SuperScript III Reverse-Transcriptase Kit (Life Technology). OmicsGreen qPCR SYBR Green master mix (Omics Bio, Taiwan) was used to monitor amplification using an Applied Biosystems 7500 Real-Time PCR system. GAPDH was used an internal control.
# BBB [4] = details: mice
# Procedure: After 30 minutes circulation, 50 ml phosphate buffered saline (PBS) was perfused through the abdominal aorta. Organs were removed, cut into multiple smaller pieces, rinsed, dried, weighed, homogenised in 500 μl formamide, heated at 60° C. overnight and centrifuged at 21,000×g for 15 minutes. Supernatant absorbance was measured at 620 nm with background correction at 740 nm, and unknowns quantified by standard curve. […] Radu et al., J. Vis. Exp., No. 73, e50062 (2013).
# Concentrations from multiple pieces of the same organ were averaged. For imaging of Evans blue extravasation, a method from del Valle and colleagues was adapted. del Valle et al., J. Neurosci. Methods, 174 (1), 42-49 (2008). Mice were intracardially perfused with 50 ml PBS followed by 50 ml of Evans blue (1% w/v) in paraformaldehyde (4% w/v). Cryolesion injury, to induce a local area of BBB damage, was used as a positive control. The brain was embedded in optimal cutting temperature compound (OCT) and cryosectioned into 20 μm thick sections for analysis.
# BBB [5] = details: pigs, VEGF vs control
# Text: One minute later, a series of three post-contrast images were taken at the same settings. The two pre-contrast images were averaged, and the post contrast image with the highest SNR from each animal was selected for analysis.
# P-glycoprotein = details: all time points after VEGF
# Text: (§1) Brain tumours from mice which died between day 60 to day 70 were selected for immunofluorescence staining. […] Primary antibodies and dilutions used were anti-Ki67 (1:500 GeneTex GTX16667), Isolectin IB4-AlexaFluor 647, anti-GFAP (1:500 AbCam ab68428), anti-Iba1 (1:1000 Wako 019-19741), anti-p-glycoprotein (1:100 AbCam ab170904), anti-pdgfrβ (1:100, ab32570 Abcam), anti-claudin-5 (1:50 34-1600 Thermo Fisher Scientific), anti-CD31 (1:100 550274, BD Pharmingen). Samples were fixed in 4% w/v paraformaldehyde (PFA) pH 6.8 overnight, embedded in paraffin and sectioned. Slides were de-waxed with xylene, rehydrated through graded alcohols to water, then subjected to antigen retrieval, permeabilisation and blocking in accordance with the manufacturers' instructions. Primary antibody was applied overnight at 4° C. diluted in blocking buffer, apart from isolectin, which was applied for one hour at room temperature. Slides were washed 3× with PBS, before the second primary antibody was added and left overnight at 4° C. Secondary antibodies used were goat anti-rabbit IgG-AlexaFluor 568 (Invitrogen A-11011) and goat anti-rat IgG-AlexaFluor 488 (Invitrogen A-11006), applied for one hour at room temperature. At least three separate sections were examined, and at least three images were captured per section. […]
# astrocytes = details: between treatment groups
# Text: as §1
# BBB [6] = details: mice; remark: listed apart in the source
# Procedure: For mice, a Pharmascan 7T 16-cm bore horizontal system was operated by a technician. […] Pre-contrast T1-weighted spin echo images were taken (repetition time (TR)=400 ms, echo time (TE)=10.8 ms, field of view (FOV)=2×2 cm, number of excitations (NEX)=8, slice thickness 0.8 mm). […] Post-contrast T1-weighted images were acquired one minute after contrast agent injection. The SNR was calculated by dividing the signal of a ROI (mean pixel intensity) by the standard deviation of the background noise. All image acquisition, SNR measurement and tumour volume measurement was performed by two MRI operating technicians, who were blinded to the study groups.
# brain blood vessels = system: brain blood vessels
# Procedure: Mice were anaesthetised and perfused with PBS followed by 100 ml 4% PFA in […] phosphate buffer, pH 7.4. The brain was removed and post-fixed in 4% PFA (overnight, 4° C.) and washed in PBS. Coronal brain sections (100 μm thick) were cut on the same day with a cryomicrotome and processed free floating. Sections were immersed in 4% PFA, 2.5% glutaraldehye in PBS (overnight, 4 ° C.), washed with PBS for 5 minutes for 3 times. The specimens were immersed in 1% osmium tetroxide for 45 minutes, dehydrated and embedded with Spurr's low viscosity resin. The sample was then trimmed and sectioned using a Leica EM UC6 ultramicrotome. The ultrathin sections were then double stained with uranyl acetate and lead citrate. Images were acquired using Jeol JEM 1200EX TEM with an acceleration voltage of 80 KV.
# Claudin-5 = details: after VEGF administration
# [7] = system: DBTRG-05MG human glioblastoma cell line; experiment: MTT assay cell viability; assay type: cell-based; details: VEGF up to 100 ng/ml
# Procedure: DBTRG-05MG human glioblastoma cells were used in this study. DBTRG-05MG cells were routinely cultured at 37° C. in RPMI 1640 media supplemented with 10% FBS, 1 mM sodium pyruvate and 1% penicillin/streptomycin. MTT assay was carried out in accordance with the manufacturer protocol. For GBM tumour generation, 300,000 live DBTRG-05MG cells, suspended in 6 μl sterile saline, were administered to 6 week old BALB/c NU mice by stereotactic injection, […] The location was 2 mm posterior to the bregma, 1.5 mm laterally in the right cerebral hemisphere, and 2.5 mm deep from the dura, thus delivering the cells into the thalamus. Baumann et al., J. Vis. Exp., No. 67, 3-6 (2012). Bone wax was applied to the skull and the skin was closed with sutures. The success rate of xenograft tumour formation was approximately 90%. Animal deaths were recorded when the animal succumbed from tumour progression, or upon sacrifice if they met pre-determined criteria including severe cachexia (loss of >25% starting body weight), inability to feed, and lack of response to toe-pinch stimulus. Gholamin et al., Cureus, 4, 1-14 (2013).
# BBB [8] = details: antibody 45 minutes following VEGF; preliminary evidence
# claudin 5 = system: claudin 5
# Text: (§2) Brain tumours from mice which died between day 60 to day 70 were selected for immunofluorescence staining. […] Primary antibodies and dilutions used were anti-Ki67 (1:500 GeneTex GTX16667), Isolectin IB4-AlexaFluor 647, anti-GFAP (1:500 AbCam ab68428), anti-Iba1 (1:1000 Wako 019-19741), anti-p-glycoprotein (1:100 AbCam ab170904), anti-pdgfrβ (1:100, ab32570 Abcam), anti-claudin-5 (1:50 34-1600 Thermo Fisher Scientific), anti-CD31 (1:100 550274, BD Pharmingen). Samples were fixed in 4% w/v paraformaldehyde (PFA) pH 6.8 overnight, embedded in paraffin and sectioned. Slides were de-waxed with xylene, rehydrated through graded alcohols to water, then subjected to antigen retrieval, permeabilisation and blocking in accordance with the manufacturers' instructions. Primary antibody was applied overnight at 4° C. diluted in blocking buffer, apart from isolectin, which was applied for one hour at room temperature. Slides were washed 3× with PBS, before the second primary antibody was added and left overnight at 4° C. Secondary antibodies used were goat anti-rabbit IgG-AlexaFluor 568 (Invitrogen A-11011) and goat anti-rat IgG-AlexaFluor 488 (Invitrogen A-11006), applied for one hour at room temperature. At least three separate sections were examined, and at least three images were captured per section. For frozen sections, samples were perfusion fixed then submerged in 4% paraformaldehyde (PFA), cryoprotected in 30% w/v sucrose solution, then frozen in OCT, sectioned and stained as above, continuing on from blocking. H&E staining (Mayers) followed standard lab protocols. Images were captured using a Zeiss AxioScop microscope with AxioFluor objective lenses and AxioVision software, or a Model-Zeiss LSM 700 Stage confocal microscope.
# (§3) GraphPad Prism 7.0b (Mac) was used for all statistical analysis and graph generation. For before-after analyses, paired t-test was used, and for grouped analyses one or two-way ANOVA (analysis of variance) with Tukey's post-test to correct for multiple comparisons were used. For tumour survival analyses, deaths were recorded and used to generate Kaplan-Meier survival curves which were compared using Mantel-Cox log rank tests. IVIS images of tumour luminescence and nanoparticle fluorescence were quantified using Living Image 4.0 software for Mac. MRI DICOM images were sorted in MicroDicom (Windows) and SNR calculation was performed in FIJI/ImageJ (Mac) using the measure tool. For heatmap generation, voxels within the animal were compared to the average of a 64*64 voxel region in the corner of the frame and the difference was scaled from 0 to 100, using Python. Adjustments to immunofluorescence image brightness and contrast were made to improve visual clarity and were applied equally to all images within a series. For colocalisation analysis, the raw images were analysed in Zeiss ZEN software. The threshold for no colocalisation was established using the DAPI/CD31 channels, and that threshold was then applied to the other channels. Pericyte alignment analysis was carried out using the freehand line selection tool in ImageJ. Figures were assembled in Affinity Designer (Mac).
# [9] = system: pericyte coverage of blood vessels
# Text: as §2, §3
# [10] = mouse brain 45 minutes or 4 hours following VEGF
# [11] = GBM tumour region, VEGF pre-treatment
compound,measurement,setting,value
"COc1cccc2c1C(=O)c1c(O)c3c(c(O)c1C2=O)C[C@@](O)(C(=O)CO)C[C@@H]3O[C@H]1C[C@H](N)[C@H](O)[C@H](C)O1 [Doxorubicin, Doxorubicin Hydrochloride]",doxorubicin concentration in brain after VEGF pre-treatment vs. control,"BBB [1]; 8 mg/kg 45 minutes after VEGF, mice",statistically significant increase
same,systemic Doxorubicin entering the brain,"BBB [1]; healthy control mice, 8 mg/kg, two hours circulation",less than 0.1%
"Cn1nnc2c(C(N)=O)ncn2c1=O [TMZ, Temozolomide]",brain concentration of TMZ after VEGF pre-treatment,BBB [2]; TMZ 20 mg/kg,did not further enhance
same,TMZ concentration in the brain after VEGF pre-treatment,BBB [2]; VEGF or 10-fold higher VEGF,does not significantly increase
VEGF,p-glycoprotein gene expression (Abcb1a),[3]; following VEGF at the given dose,No change
same,expression of BBB transporters Slc2a1 (GLUT-1) and Slc6a8 (CRT),[3]; [10],increase
same,expression of tight junction components Tjp2 (ZO-2) and Cldn5 (Claudin 5),[3]; [10],decrease
same,Evans blue uptake in kidney,BBB [4]; 45 minutes after VEGF,increase
same,concentration of Evans blue in brain tissue compared to control-treated animals,"BBB [4]; Evans blue 45 minutes after VEGF, 30 minutes circulation",4.85 fold
same,concentration of Evans blue in brain tissue compared to control,BBB [4]; Evans blue 4 hours following VEGF,no increase was detected
same,SNR enhancement of the central cerebral sinus,BBB [5],no significant difference
same,P-glycoprotein staining,P-glycoprotein,appeared uniformly on the membrane of blood vessels at all time points
same,astrocyte morphology (GFAP),astrocytes,no obvious change
same,"increase in average SNR of the cortex, post- vs pre-contrast",BBB [6]; Gd given 45 minutes following VEGF,16%
same,"SNR enhancement of the cortex, post- vs pre-contrast",BBB [6]; Gd given 4 hours after VEGF,less than 5%
same,signal enhancement of area surrounding central cerebral sinus,BBB [6]; VEGF vs control groups,no significant difference between the groups
same,morphology of brain blood vessels (TEM),brain blood vessels; 15 minutes following VEGF injection,slightly dilated and lacking adjacent pericytes
same,morphology of brain blood vessels (TEM),brain blood vessels; 45 minutes following VEGF,no longer dilated
same,morphology of brain blood vessels (TEM),brain blood vessels; four hours following VEGF,both vessels and pericytes appeared normal
same,Claudin-5 protein expression (Western blot),Claudin-5,trend towards reduced protein expression
same,effect on DBTRG-05MG cell viability,[7],did not affect
same,passage of systemically injected IgG antibody into the brain,BBB [8],allows the passage of systemically injected IgG antibody into the brain
same,colocalisation of claudin 5 and CD31,claudin 5; [11],48.5%
same,colocalisation of claudin 5 and CD31,"claudin 5; healthy brain, 45 minutes following VEGF",55.8%
same,colocalisation of claudin 5 and CD31,"claudin 5; healthy brain, 4 hours following VEGF",42.7%
same,pericyte coverage of blood vessels,[9]; [11],28.9%
same,pericyte coverage of blood vessels,"[9]; healthy brain, 15 minutes after VEGF",57.6%
same,pericyte coverage of blood vessels,"[9]; healthy brain, 45 minutes after VEGF",86.2%
same,pericyte coverage of blood vessels,"[9]; healthy brain, 4 hours after VEGF",83.0%
